The results in this text go back to patent US9670206B2, “Pyrido[4,3-B]pyrazine-2-carboxamides as neurogenic agents for the treatment of neurodegenerative disorders” (Hoffmann-La Roche Inc., priority 2013, dated 2017).

In this assay the test system is human embryonic stem cell derived neural stem cells (NSCs). Put plainly: Neural stem cell proliferation assay (neurogenesis assay, ATP levels by CellTiterGlo). The note with it: 96 h, compound concentration at which 150% activity of control (100%) is reached, NSC proliferation, ATP readout after 4 days incubation. In kind it is cell-based. How it is done: Neural Stem Cell Proliferation Assay
Neurogenic properties of small molecules are determined based on the proliferation of human embryonic stem cell derived neural stem cells (NSCs) which were derived via a dual smad inhibition as previously described (Chambers, S. M., et al., Highly efficient neural conversion of human ES and iPS cells by dual inhibition of SMAD signaling, Nature biotechnology, 2009. 27(3): p. 275-80.) Compounds respond is measured by the increase in cells based on ATP levels (Promega:CellTiterGlo®) after an incubation period of 4 days. NSCs are thawed and expanded over 3 passages. On the 14th day, NSCs are seeded in Polyornithin/Laminin coated 384 well plates at a cell density of 21,000 cells/cm^2 in a media volume of 38 μl. 4 hours after cell seeding, compound solutions are added at a volume of 2 μl. Stock solutions of the compounds (water, 5% DMSO) are diluted to obtain a dose response (11 points, dilution factor is 2), ranging from 8 μM to 8 nM. Controls are run to consistently determine the neurogenic properties of the cells: Negative (neutral) control is cell culture Media (final DMSO concentration: 0.25%). Positive controls are: • 1. cell culture Media+100 ng/ml FGF2 (final DMSO concentration: 0.1%) • 2. cell culture Media+20 ng/ml EGF (final DMSO concentration: 0.1%) • 3. cell culture Media+100 ng/ml Wnt3a (final DMSO concentration: 0.1%) After 4 days incubation at 37° C., 5% CO2, the amount of ATP per well is quantified. The ATP concentration is proportional to the cell number. ATP is quantified by using the Promega CellTiterGlo® kit. The CellTiterGlo® reagents contain a cell lysis buffer, a thermo stable luciferase (UltraGlo™ recombinant luciferase), magnesium and luciferin. Luciferin reacts with ATP producing oxyluciferin, AMP and light. The luminescence signal is proportional to the ATP content. The value of negative (neutral) control is determined for each assay plate by taking the average of 16 negative control wells. The neurogenic compound response is calculated for each compound as (compound/Negative Control)*100. The values of EC150 from the dose response curve are determined for each test compound. The EC150 is the compound concentration at which 150% activity of control (100%) is reached.

`N#CC1(NC(=O)c2cnc3cncc(Br)c3n2)CC1` [Example 3, 8-Bromo-N-(1-cyanocyclopropyl)pyrido[4,3-b]pyrazine-2-carboxamide] had an EC (150% of control) of 2.32 µM.
Consider `O=C(c1cnc2cncc(-c3cc(C(F)(F)F)ccc3F)c2n1)N1CCC(O)C1` (centres unmarked) [Example 40, (8-(2-Fluoro-5-(trifluoromethyl)phenyl)pyrido[4,3-b]pyrazin-2-yl)(3-hydroxypyrrolidin-1-yl)methanone], for which the EC (150% of control) stood at 0.93 µM.
With `Cn1nccc1-c1cncc2ncc(C(N)=O)nc12` [Example 50, 8-(1-Methyl-1H-pyrazol-5-yl)pyrido[4,3-b]pyrazine-2-carboxamide], the EC (150% of control) was 0.02 µM.
Molecule `CC(NC(=O)c1cnc2cncc(-c3ccc(Cl)cc3Cl)c2n1)C(C)(C)O` (centres unmarked) [Example 36, 8-(2,4-Dichlorophenyl)-N-(3-hydroxy-3-methylbutan-2-yl)pyrido[4,3-b]pyrazine-2-carboxamide] yielded an EC (150% of control) of 1.5 µM.
Consider `CC(NC(=O)c1cnc2cncc(-c3ccc(Cl)cc3)c2n1)C(C)(C)O` (centres unmarked) [Example 5, 8-(4-Chlorophenyl)-N-(3-hydroxy-3-methylbutan-2-yl)pyrido[4,3-b]pyrazine-2-carboxamide], for which the EC (150% of control) came to 0.89 µM.
Regarding `Cc1cccc(-c2cncc3ncc(C(=O)NC(C)C(C)(C)O)nc23)n1` (centres unmarked) [Example 53, N-(3-Hydroxy-3-methylbutan-2-yl)-8-(6-methylpyridin-2-yl)pyrido[4,3-b]pyrazine-2-carboxamide], the EC (150% of control) turned out to be 0.5 µM.
The molecule `NC(=O)c1cnc2cncc(-c3ccc(Cl)cc3F)c2n1` [Example 22, 8-(4-Chloro-2-fluorophenyl)pyrido[4,3-b]pyrazine-2-carboxamide] displayed an EC (150% of control) of 0.07 µM.
With `NC(=O)c1cnc2cncc(-c3ccc(F)c(F)c3)c2n1` [Example 27, 8-(3,4-Difluorophenyl)pyrido[4,3-b]pyrazine-2-carboxamide], the EC (150% of control) was found to be 0.12 µM.
For the molecule `O=C(c1cnc2cncc(-c3ccc(Cl)cc3)c2n1)N1CCS(=O)(=O)CC1` [Example 32, [8-(4-Chlorophenyl)pyrido[3,4-b]pyrazin-2-yl]-(1,1-dioxo-1,4-thiazinan-4-yl)methanone], the EC (150% of control) is 0.84 µM.
Next, `O=C(c1cnc2cncc(-c3ccc(Cl)cc3F)c2n1)N1CCC(O)C1` (centres unmarked) [Example 38, (8-(4-Chloro-2-fluorophenyl)pyrido[4,3-b]pyrazin-2-yl)(3-hydroxypyrrolidin-1-yl)methanone]: 0.1 µM; `O=C(c1cnc2cncc(-c3ccc(Cl)cc3)c2n1)N1CCOCC1` [Example 9, (8-(4-Chlorophenyl)pyrido[4,3-b]pyrazin-2-yl)(morpholino)methanone]: 0.65 µM; `O=C(c1cnc2cncc(-c3ccc(C(F)(F)F)cc3F)c2n1)N1CCC(O)C1` (centres unmarked) [Example 45, (8-(2-Fluoro-4-(trifluoromethyl)phenyl)pyrido[4,3-b]pyrazin-2-yl)(3-hydroxypyrrolidin-1-yl)methanone]: 1.48 µM.
On to `N#CC1(NC(=O)c2cnc3cncc(-c4ccc(C(F)(F)F)cc4)c3n2)CC1` [Example 8, N-(1-Cyanocyclopropyl)-8-(4-(trifluoromethyl)phenyl)pyrido[4,3-b]pyrazine-2-carboxamide], for which the EC (150% of control) is 0.39 µM.
`NC(=O)c1cnc2cncc(N3CCC(F)(F)CC3)c2n1` [Example 42, 8-(4,4-Difluoropiperidin-1-yl)pyrido[4,3-b]pyrazine-2-carboxamide]: the EC (150% of control) turned out to be 0.09 µM.
Molecule `O=C(c1cnc2cncc(-c3ccc(C(F)(F)F)c(F)c3)c2n1)N1CCC(O)C1` (centres unmarked) [Example 52, (8-(3-Fluoro-4-(trifluoromethyl)phenyl)pyrido[4,3-b]pyrazin-2-yl)(3-hydroxypyrrolidin-1-yl)methanone] gave an EC (150% of control) of 0.07 µM.
On to `CC(NC(=O)c1cnc2cncc(-c3ccc(Cl)c(F)c3)c2n1)C(C)(C)O` (centres unmarked) [Example 46, 8-(4-Chloro-3-fluorophenyl)-N-(3-hydroxy-3-methylbutan-2-yl)pyrido[4,3-b]pyrazine-2-carboxamide], for which the EC (150% of control) is 0.29 µM.
The molecule `NC(=O)c1cnc2cncc(-c3ccc(Cl)nc3)c2n1` [Example 18, 8-(6-Chloropyridin-3-yl)pyrido[4,3-b]pyrazine-2-carboxamide] had an EC (150% of control) of 0.21 µM.
